Here are results for nine compounds from patent publication US8569270B2, “Diphenyl sulfide derivatives and medicines containing same as active ingredient” (Kyorin Pharmaceutical Co., Ltd., priority 2009, dated 2013).

A word on the Kd: it is the equilibrium constant for the complex coming apart. What is called EC50 is the concentration giving half of the maximal effect.

In assay [1] the target is T1, Human S1P3 receptor (Homo sapiens, UniProt Q99500).
T1 construct: expressed in transfected cells; host or cells: CHO cells (Geneticin-selected)
T1 sequence (Q99500 whole entry): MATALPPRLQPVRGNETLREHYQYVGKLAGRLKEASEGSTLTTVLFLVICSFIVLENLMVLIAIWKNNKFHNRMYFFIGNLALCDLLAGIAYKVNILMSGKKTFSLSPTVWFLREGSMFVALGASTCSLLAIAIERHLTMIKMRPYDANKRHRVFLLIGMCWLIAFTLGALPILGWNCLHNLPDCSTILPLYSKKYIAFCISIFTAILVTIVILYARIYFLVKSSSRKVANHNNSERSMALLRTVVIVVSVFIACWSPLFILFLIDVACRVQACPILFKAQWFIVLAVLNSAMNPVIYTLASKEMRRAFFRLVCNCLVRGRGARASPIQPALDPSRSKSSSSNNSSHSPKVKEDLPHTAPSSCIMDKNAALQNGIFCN
Put plainly: Suppression of S1P-induced cellular calcium mobilization in human S1P3 receptor-expression CHO cells (Schild plot). In kind it is cell-based. Particulars: Schild plot of S1P EC50 shift; test compound 125 nM, 1.25 μM, 12.5 μM; hS1P3 CHO cells; read-out: S1P3 dissociation constant Kd value. Here is the method:
Suppression Effect of Test Compound Against Cellular Calcium Mobilization of Human S1P3 Receptor-Expression Cell by S1P (Sphingosine 1-Phosphoric Acid)
Human S1P3 receptor-expression CHO cells were subcultured in a Ham's F-12 culture medium containing 10% fetal bovine serum, and 300 μg/mL of Geneticin. The human S1P3 receptor-expression CHO cells were subjected to 0.25% trypsinization, then recovered from the dish, and floated in a Ham's F-12 culture medium containing 10% fetal bovine serum, and 300 μg/mL of Geneticin. After that, the human S1P3 receptor-expression CHO cells were disseminated into a 96-well black clear bottom plate (BD Falcon Biocoat) so that 7×10^4/100 μL/well of the human S1P3 receptor-expression CHO cells were disseminated. And then, the human S1P3 receptor-expression CHO cells were cultivated for one night at 37° C. under 5% CO2. The next day, the wells were washed 3 times with 100 μL of PBS containing 0.1% fatty acid-free bovine serum albumin (BSA). The culture medium was exchanged with a Ham's F-12 culture medium containing 0.1% BSA, and then starved of serum for 6 hours in an CO2 incubator at 37° C.
The culture medium was thrown away after the 6 hours. Then, 50 μL/well of a Fluo3 loading buffer was added, and the cultures were cultivated for further 1 hour. The Fluo3 loading buffer was prepared as follows. First, equal amounts of Fluo3-AM (Dojindo) and pluronic F-127 (20% DMSO solution, invitrogen) were mixed. Next, the mixture of Fluo3-AM and pluronic F-127 was added to a Hanks-HEPES buffer (balanced salt solution containing 20 mM HEPES (pH, 7.4), 0.1% BSA (fatty acid-free), and 2.5 mM probenecid) to form a Fluo3 loading buffer having a final Fluo3-AM concentration of 4
After incubating for 1 hour, the cultures were washed 3 times with 100 μL of the Hanks-HEPES buffer. Then, 100 μL of the same buffer in which a test compound (125 nM, 1.25 μM, 12.5 μM) or DMSO had been dissolved was added to the cultures, and then incubated for 30 minutes at 37° C. in a microplate spectrophotofluorometer (FLEX Station) (Molecular Device Co., Ltd.). Then, 25 μL of S1P prepared at 5 times the concentration of the final concentration by serial dilution (final concentration of 0.1 nM, 1 nM, 10 nM, 100 nM, and 1 μM) was added, and the fluorescence based on the Fluo3 due to calcium mobilization was detected and measured at an excitation wavelength of 485 nm and a detection wavelength of 525 nm using the same apparatus. Based on the measurement data, the increase in fluorescence was calculated by subtracting the minimum fluorescence intensity from the maximum fluorescence intensity. The measured increase in fluorescence was used to perform a curve approximation of the relationship between the S1P concentration and the increase in fluorescence using PRISM 4 software (GraphPad). Based on the results, the EC50 value of the compound-untreated and the EC50 value of the compound-treated at each concentration were calculated. Schild Plot analysis was performed based on these values to determine dissociation constant Kd value. In Table 1, 1,000 nmol/L>Kd value≧100 nmol/L is indicated as “+,” 100 nmol/L>Kd value≧10 nmol/L is indicated as “++,” 10 nmol/L>Kd value≧1 nmol/L is indicated as “+++,” and 1 nmol/L>Kd value is indicated as “++++.”
Background: A change in cytosolic calcium serves as a functional read-out for many receptors and channels.

The target in assay [2] is T2, S1P1 receptor (Homo sapiens, UniProt P21453). Put plainly: Antagonistic action on the S1P1 receptor using the method of Experiment Example 1. The assay is classed as cell-based. The arrangement: expressed in transfected cells.
T2 sequence (P21453 whole entry): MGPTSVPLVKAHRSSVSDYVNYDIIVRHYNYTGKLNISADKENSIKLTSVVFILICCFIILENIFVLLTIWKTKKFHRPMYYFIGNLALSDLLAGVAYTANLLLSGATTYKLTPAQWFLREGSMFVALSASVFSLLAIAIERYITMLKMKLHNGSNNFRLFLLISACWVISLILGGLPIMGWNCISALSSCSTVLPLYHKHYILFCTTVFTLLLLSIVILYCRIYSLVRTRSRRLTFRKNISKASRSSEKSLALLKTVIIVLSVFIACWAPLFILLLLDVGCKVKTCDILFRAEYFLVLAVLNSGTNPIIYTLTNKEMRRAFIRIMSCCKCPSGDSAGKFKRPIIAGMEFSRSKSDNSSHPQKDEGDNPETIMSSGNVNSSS
For assay [3], the system named is IL-1β production. Put plainly: LPS induced sepsis model, IL-1β in tissue by ELISA. In kind it is in vivo, C57BL/6J mouse. Particulars: 10 mg/kg i.v. twice (15 min before and 2 h after LPS), 18 h after LPS; for Suppression Rate for Lung: mouse lung; for Suppression Rate for Mesenteric Lymph Nodes: mouse mesenteric lymph nodes. Here is the method: The experiment was carried out with reference to the method described in Non-Patent Literature 5 (F. Nissen et al., Nature, 452, 654 (2008)). A solution of 1 mg/ml LPS (lipopolysaccharide) in physiological saline was intraperitoneally administered (10 ml/kg) to a C57BL/6J mouse (Charles River, male, 7 to 8 weeks). The test compound in an amount of 10 mg/kg was intravenously administered twice, 15 minutes before LPS administration and 2 hours after LPS administration. The mouse was dissected 18 hours after LPS administration, and the mesenteric lymph nodes and lungs were excised. The mesenteric lymph nodes were dissolved in 200 μl and the lungs in 1 ml of a dissolving buffer (30 mM Tris (pH7.4), 150 mM NaCl, 0.1% TritonX-100, 2 mM CaCl2, and 2 mM MgCl2). Non-dissolved matter was removed by centrifugal separation. The IL-1β in the tissue solutions was measured using an IL-1β ELISA Kit (Thermo Co., Ltd.). In Table 2, compounds having a suppression rate of 50% or more are indicated as “+++,” compounds having a suppression rate of 50%>suppression rate≧30% are indicated as “++,” and compounds having a suppression rate of 30%>suppression rate 20% are indicated as “+.”
The suppression rate was calculated using the following calculation equation. a=(1−X/Y)×100 [Equation 1] X: IL-1β PRODUCTION AMOUNT WHEN, 10 mg/kg OF TEST COMPOUND WAS ADMINISTERED TO RESPECTIVE TISSUE Y: IL-1β PRODUCTION AMOUNT WHEN TEST COMPOUND WAS NOT ADMINISTERED TO RESPECTIVE TISSUE a: SUPPRESSION RATE (%)
(ELISA stands for enzyme-linked immunosorbent assay.)

Assay [4] deals with T2, S1P1 receptor. Put plainly: Intracellular calcium mobilization derivative (agonist) test in human S1P1 receptor-expression CHO cells. In kind it is cell-based. The arrangement: expressed in transfected cells; host or cells: CHO cells (Geneticin-selected). Particulars: agonist mode, read-out: EC50 value, intracellular calcium mobilization derivative action. Here is the method: Intracellular Calcium Mobilization Derivative Test of Test Compound Against Human S1P1 Receptor-Expression Cell
Human S1P receptor-expression CHO cells (hS1P1 receptor-expression CHO cells, hS1P3 receptor-expression CHO cells, and hS1P4 receptor-expression CHO cells) subcultured in a Ham's F-12 culture medium containing 10% fetal bovine serum, and 200 μg/mL of Geneticin were disseminated into a 96-well black clear bottom plate (coaster) so that 4×10^4 cells/well of the human S1P receptor-expression CHO cells were disseminated. The human S1P3 receptor-expression CHO cells were then cultivated for one night at 37° C. under 5% CO2. A Calcium Screening Kit reagent (Dojindo) was added as a Ca^2+ binding fluorescence indicator, and then the cultures were cultivated for 60 minutes at 37° C. under 5% CO2. After cultivation, the fluoroesence intensity was measured at an excitation wavelength of 485 nm and a detection wavelength of 525 nm using a microplate spectrophotofluorometer (FLEX Station) (Molecular Device Co., Ltd.). S1P prepared in a culture medium so that the concentration would be 10 times that of the final concentration, or a test compound (final DMSO concentration 0.1%) was added 18 seconds after the start of the fluorescence measurement, and the fluorescence intensity was continuously measured every 1.5 seconds until 100 seconds after the addition. […]

Assay [5] concerns Cecal ligation and puncture sepsis model. Put plainly: Cecal ligation and puncture sepsis model, survival. The assay is classed as in vivo, Long-Evans rats. The conditions noted are these: 0.1 mg/kg/hr continuous i.v. from 2 hours after CLP, rat. Here is the method:
This model is widely used as a model for polymicrobial abdominal sepsis caused by leakage of intestinal bacteria. The experiment was carried out with reference to the method described in Non-Patent Literature 9 (D. Rittirsch et al., Nature Protocols, 4, 31 (2009)). Long-Evans rats were used (Nihon SLC, male 9 weeks). The abdominal portion of the rats was cut open under isoflurane anesthesia, and the cecum was removed. The cecum was ligated with silk thread, and 3 holes were opened in the tip portion of the cecum using an 18 G syringe needle. After the treatment, the cecum was returned to the body, and the wound was sutured. The rats were then returned to their cages, and observed for 4 days to determine the survival rate. The test compound (0.1 mg/kg/hr) was continuously administered from a cannula stuck in the femoral vein from 2 hours after the CLP treatment.

SMILES strings stand for the structures.

As for `CCC[C@](N)(CCc1ccc(Sc2cc(C(F)(F)F)ccc2O)cc1Cl)COP(=O)(O)O` [Example 13], the dissociation constant Kd in assay [1] was less than 1 nM. In assay [2], this compound showed a Kd of more than 100 µM. Also, in assay [3], the “Suppression Rate for Lung” value is given as “+++ (suppression rate of 50% or more)” and the “Suppression Rate for Mesenteric Lymph Nodes” value was “+++ (suppression rate of 50% or more)”. Further, in assay [4], the EC50 is more than 10 µM.

For `CCC[C@](N)(CCc1ccc(Sc2cc(-c3ccccc3)ccc2O)cc1Cl)COP(=O)(O)O` [Example 22], the Kd in assay [1] is less than 1 nM. The “survival rate after 4 days” value in assay [5] (medium group 40%) is on record as 70%. In addition, the “survival curve compared with the medium administration group” value in assay [5] (observed 4 days) is “survival curve that had shifted to the right”.

Take `C[C@](N)(CCc1ccc(Sc2cc(C(F)(F)F)ccc2O)cc1Cl)CCP(=O)(O)O` [Example 17, (S)-3-amino-5-[2-chloro-4-(2-hydroxy-5-trifluoromethylphenylthio)phenyl]-3-methylpentylphosphonic acid]: the Kd in assay [1] lay in the range of 100 to 1000 nM.

Consider `C=CC[C@](N)(CCc1ccc(Sc2cc(C(F)(F)F)ccc2O)cc1Cl)COP(=O)(O)O` [Example 12, (R)-2-allyl-2-amino-4-[2-chloro-4-(2-hydroxy-5-trifluoromethylphenylthio)phenyl]-butylphosphoric acid monoester], for which, in assay [1], the Kd was less than 1 nM. For the same compound, in assay [3], the “Suppression Rate for Lung” value is recorded as “++ (50%>suppression rate≧30%)” and the “Suppression Rate for Mesenteric Lymph Nodes” value is on record as “+ (30%>suppression rate 20%)”.

Regarding `Cc1ccc(O)c(Sc2ccc(CC[C@](C)(N)COP(=O)(O)O)c(Cl)c2)c1` [Example 1, (S)-2-amino-4-[2-chloro-4-(2-hydroxy-5-methylphenylthio)phenyl]-2-methylbutylphosphoric acid monoester], in assay [1], the dissociation constant (Kd) lay in the range of 10 to 100 nM.

On to `CCC[C@](N)(CCc1ccc(Sc2cc(C(C)C)ccc2O)cc1Cl)COP(=O)(O)O` [Example 19, (S)-2-amino-4-[2-chloro-4-(2-hydroxy-5-isopropylphenylthio)phenyl]-2-propylbutylphosphoric acid monoester], for which the dissociation constant Kd in assay [1] is 1 to 10 nM.

Turning to `C[C@](N)(CCc1ccc(Sc2cc(C#N)ccc2O)cc1Cl)COP(=O)(O)O` [Example 15, (S)-2-amino-4-[2-chloro-4-(5-cyano-2-hydroxyphenylthio)phenyl]-2-methylbutylphosphoric acid monoester], the Kd was 100 to 1000 nM in assay [1] and more than 100 µM in assay [2]. Moreover, in assay [4], the EC50 is more than 10 µM.

In the case of `C[C@](N)(CCc1ccc(Sc2cc(C(F)(F)F)ccc2O)cc1Cl)COP(=O)(O)O` [Example 11, (S)-2-amino-4-[2-chloro-4-(2-hydroxy-5-trifluoromethylphenylthio)phenyl]-2-methylbutylphosphoric acid monoester], the Kd in assay [1] fell in the range of 1 to 10 nM. In assay [3], the “Suppression Rate for Lung” value was “++ (50%>suppression rate≧30%)” and the “Suppression Rate for Mesenteric Lymph Nodes” value is on record as “++ (50%>suppression rate≧30%)”.

Take `CCCc1ccc(O)c(Sc2ccc(CC[C@](C)(N)COP(=O)(O)O)c(Cl)c2)c1` [Example 3, (S)-2-amino-4-[2-chloro-4-(2-hydroxy-5-propylphenylthio)phenyl]-2-methylbutylphosphoric acid monoester]: the Kd in assay [1] fell in the range of 10 to 100 nM.
